# Assay results reported in patent US11896589B2, “Diazinyl amino acridines and medical uses thereof” (MyCural Therapeutics AB, priority 2018, dated 2024).
# What was measured:
# [1] = molecular target: T1, FRA1:JUN interaction in MDA-MB231 cells (Homo sapiens, UniProt P05412+P15407); test: Assay 3A isPLA assay, FRA1:JUN; type: cell-based; details: 10 μM
# T1 construct: endogenous in cells; host or cells: MDA-MB231
# Procedure: (§1) FIG. 4: A) Endogenous MYC:MAX (upper panel) and FRA1:JUN (lower panel) interactions as visualized as fluorescent red dots by isPLA. Nuclei were counterstained with DAPI (blue). Cells were treated with 10 μM of indicated compounds for 16 hours and subjected to isPLA using pairs of MYC and MAX and of FRA1 and JUN antibodies, respectively. As negative control, primary antibody pairs but only one oligo-conjugated secondary antibody was used. B) Quantification of MYC:MAX and C) FRA1:JUN isPLA, representing an average number of nuclear dots per cell from three microscopic fields normalized to corresponding values for DMSO-treated cells. […] 1st-4th lanes from top; coimmunoprecipitated MAX, immunoprecipitated MYC, total levels of MAX and ACTIN, respectively, as determined by western blot analysis. E) MYC:MAX GLuc assay in cells. […] 24 hours later cells were treated with […] of Example 1, Example 2 and control compound for 16 hours and thereafter analyzed in a dual luciferase assay. The ratio of Gaussia/Firefly luciferase luminescence were calculated and normalized to DMSO-treated cells.
# Identification of endogenous protein-protein interactions in fixed cells and has been described (Soderberg, O. et al., Nat Methods, 3, 995-1000 (2006)). […] Endogenous MYC:MAX or FRA-1:JUN protein interactions were visualized by fluorescence microscopy as fluorescent dots mainly localized in the cell nucleus. […]
# [2] = system: MYC-ER driven transcription of ODC1, RSG16, CR2 in U2OS-MYC-ER cells; test: Assay 4 MYC target gene expression (RT-qPCR); type: cell-based
# Procedure: FIG. 5: A) Inhibition of MYC transactivation of target genes (A) ODC1, (B) RSG16, and (C) CR2 as determined by RT-qPCR analysis, based on three biological experiments with three technical repeats each. U2OS-MYC-ER cells were treated with or without 100 nM 4-hydroxy-tamoxifen (HOT) for 4 hours, after which DMSO or Example 1 was added for 24 hours before total RNA was extraction. Fold changes in mRNA expression are presented relative to DMSO in non-HOT-treated cells after normalization to GAPDH, used as reference gene. Assay 4: Gene Expression To investigate the effect of the compounds on MYC-driven transcription, we utilized U2OS cells containing a MYC-estrogen receptor (MYC-ER) fusion protein, the activity of which is regulated by the ligand 4-hydroxytamoxifen (HOT). RT-qPCR was performed essentially as described in Bahram, F. et al. Interferon-gamma-induced p27KIP1 binds to and targets MYC for proteasome-mediated degradation. Oncotarget 7, 2837-2854, doi:10.18632/oncotarget.6693 (2016).
# [3] = molecular target: T2, endogenous MYC:MAX in MDA-MB231 cells (Homo sapiens, UniProt P01106); test: Assay 3B CoIP of endogenous MAX with MYC; type: cell-based
# T2 construct: endogenous in cells; host or cells: MDA-MB231
# T2 sequence (P01106 whole entry): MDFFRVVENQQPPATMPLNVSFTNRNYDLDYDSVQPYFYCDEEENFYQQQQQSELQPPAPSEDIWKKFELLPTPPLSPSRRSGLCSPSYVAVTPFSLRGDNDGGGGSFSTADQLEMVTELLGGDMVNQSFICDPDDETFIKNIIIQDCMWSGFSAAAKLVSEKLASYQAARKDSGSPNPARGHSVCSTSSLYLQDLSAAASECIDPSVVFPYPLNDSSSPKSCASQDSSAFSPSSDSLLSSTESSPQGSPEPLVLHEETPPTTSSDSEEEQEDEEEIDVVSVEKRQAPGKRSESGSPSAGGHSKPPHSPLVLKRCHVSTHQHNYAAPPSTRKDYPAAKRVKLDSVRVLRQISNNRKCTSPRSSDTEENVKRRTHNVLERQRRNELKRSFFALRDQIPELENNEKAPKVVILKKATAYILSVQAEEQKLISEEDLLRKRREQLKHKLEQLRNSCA
# Procedure: as §1
# Coimmunoprecipitation of endogenous MYC:MAX proteins were essentially carried out as in Bahram, F. et al. Interferon-gamma-induced p27KIP1 binds to and targets MYC for proteasome-mediated degradation. Oncotarget 7, 2837-2854, doi:10.18632/oncotarget.6693 (2016). […]
# [4] = system: non-MYCN-amplified neuroblastoma cells (SK-N-F1, SK-N-RA, SK-N-AS); test: Assay 5A neuroblastoma cell growth (WST-1), non-MYCN-amplified; type: cell-based
# Procedure: (§2) FIG. 6: A-B) Neuroblastoma cell lines with (SK-N-DZ, Kelly and IMR-32) or without (SK-N-F1, SK-N-RA and SK-N-AS) MYCN-amplification were exposed to different concentrations of Example 1, Example 2 and control compound, respectively, for 48 hours. Cell growth and viability was estimated by measuring metabolic activity. C) Growth of TGR-1 (wt), HO15.19 (MYC knockout) and HOmyc3 (MYC reconstituted HO15.19) Rat1 fibroblasts, as measured by the WST-1 assay after treatment with Example 1. Data are shown as mean±standard deviation of 3-5 biological experiments, each with 3 technical repeats.
# Assay 5A: Neuroblastoma Cell Growth
# Neuroblastoma cell lines with (SK-N-DZ, Kelly and IMR-32) or without (SK-N-F1, SK-N-RA and SK-N-AS) MYCN-amplification were exposed to different concentrations of example compounds for 48 hours. Cell growth and viability was estimated by measuring metabolic activity by incubating cells in triplicates with WST-1 (Roche) in medium at 37° C. and 5% CO2 for 2 hours after which absorbance was measured with an Omega Fluostar (BMG Labtech) in a 96 well plate format.
# [5] = system: Tgr and H0Myc3 Rat1 fibroblast cells; test: Assay 5B Tgr cell growth (WST-1), MYC expressing; type: cell-based, rat; details: 48 hours
# Procedure: as §2
# Assay 5B: Tgr Cell Growth
# Tgr cells were treated at 37° C. and 5% CO2 at 48 hours with Example and Example 2. H015.19 is a MYC null rat cell line derived from Tgr1 (parental cells), while H0Myc3 cells were generated from the MYC null cells by reconstitution of a MYC gene(Mateyak, M. K., Obaya, A. J., Adachi, S. & Sedivy, J. M. Phenotypes of c-Myc-deficient rat fibroblasts isolated by targeted homologous recombination. Cell Growth Differ 8, 1039-1048 (1997)).
# T1 sequence (P15407 whole entry): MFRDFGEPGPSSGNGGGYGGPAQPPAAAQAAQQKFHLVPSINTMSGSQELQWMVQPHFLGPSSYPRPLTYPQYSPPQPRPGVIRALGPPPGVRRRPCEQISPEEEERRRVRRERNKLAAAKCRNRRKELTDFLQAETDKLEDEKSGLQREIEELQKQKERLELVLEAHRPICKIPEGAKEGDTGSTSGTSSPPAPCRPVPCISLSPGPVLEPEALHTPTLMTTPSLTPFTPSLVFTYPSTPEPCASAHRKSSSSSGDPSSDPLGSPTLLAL
# T1 sequence (P05412 whole entry): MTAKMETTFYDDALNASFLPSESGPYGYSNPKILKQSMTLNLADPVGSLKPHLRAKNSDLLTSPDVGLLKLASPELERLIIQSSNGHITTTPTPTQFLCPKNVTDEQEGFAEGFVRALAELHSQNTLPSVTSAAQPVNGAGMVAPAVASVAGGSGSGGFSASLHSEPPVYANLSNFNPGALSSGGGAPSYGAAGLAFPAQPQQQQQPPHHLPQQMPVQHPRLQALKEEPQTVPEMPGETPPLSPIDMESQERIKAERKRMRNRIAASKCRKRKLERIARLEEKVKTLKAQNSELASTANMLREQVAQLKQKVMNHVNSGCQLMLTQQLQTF
compound,measurement,setting,value
"CCOc1ccc2nc3cc(/N=N/c4ccc(N)nc4N)ccc3c(N)c2c1 [Example 1, 3-((9-amino-7-ethoxyacridin-3-yl)diazenyl)pyridine-2,6-diamine sulphate hydrate]",effect on FRA1:JUN interaction (isPLA),[1],not affecting
same,"inhibition of gene expression, CR2 gene",[2]; 10 μM,100%
same,"inhibition of gene expression, ODC1 gene",[2]; 10 μM,100%
same,"inhibition of gene expression, RSG16 gene",[2]; 10 μM,68%
same,HOT-induced expression of all three MYC target genes,[2]; 24 hours,significantly reduced
same,reduction of MYC:MAX protein interaction vs DMSO treated cells (CoIP),"[3]; 5 μM, 3.5 hours",More than Half
same,inhibition at 5 µM,"[3]; MDA-MB-231, read-out: CoIP inhibition at 10 μM",> 70%
same,GI50,"[4]; Homo sapiens, SK-N-AS, 48 h, first run",> 20 µM
same,GI50,"[4]; Homo sapiens, SK-N-AS, second run",> 25 µM
same,GI50,"[4]; first run, 48 hours, sulphate hydrate",> 25 µM
same,growth of wt and reconstituted cells,[5],strongly inhibited
same,GI50,"[5]; Rattus norvegicus, Fibroblast, first run",4 µM
